The source made the active and inactive calls. The rule behind the calls is not given here.

The species named for data set [1] is Homo sapiens. Description: Effect on bone density in the lumber spine was determined in postmenopausal women. Format: functional.
The nature of data set [2]: Effect on bone density of totalhip was determined in postmenopausal women. Format: functional, Homo sapiens, Bone element.
For data set [3], the species on record is Homo sapiens. Description: Effect on spine fractures in postmenopausal women with osteoporosis. Format: functional.
The next data set deals with Rattus norvegicus. The data set is described as follows: Effect on stimulation of immature rat uterus in dose limit of 0.1 and 10 mg/kg; No effect but lowers circulating cholesterol. Format: functional, organism-based. Also on record: dose 10 mg/kg.
The next data set deals with T1, Estrogen receptor (Homo sapiens, UniProt P03372).
T1 sequence (P03372 whole entry): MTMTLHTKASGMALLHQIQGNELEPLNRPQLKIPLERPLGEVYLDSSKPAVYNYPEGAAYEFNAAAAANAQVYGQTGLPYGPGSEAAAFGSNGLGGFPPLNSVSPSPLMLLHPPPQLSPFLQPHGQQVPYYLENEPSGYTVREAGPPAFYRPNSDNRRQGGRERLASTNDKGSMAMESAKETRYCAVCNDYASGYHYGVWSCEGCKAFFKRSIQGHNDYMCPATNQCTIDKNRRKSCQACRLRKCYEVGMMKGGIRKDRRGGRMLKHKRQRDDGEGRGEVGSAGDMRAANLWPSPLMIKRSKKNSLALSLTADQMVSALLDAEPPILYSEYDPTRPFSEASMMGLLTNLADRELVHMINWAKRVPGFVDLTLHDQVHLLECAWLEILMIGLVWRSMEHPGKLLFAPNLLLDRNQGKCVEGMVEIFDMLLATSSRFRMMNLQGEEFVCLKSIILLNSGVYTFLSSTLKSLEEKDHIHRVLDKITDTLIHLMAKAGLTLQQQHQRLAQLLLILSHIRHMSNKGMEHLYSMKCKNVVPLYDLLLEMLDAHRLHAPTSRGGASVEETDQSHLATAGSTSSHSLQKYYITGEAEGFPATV
Description: Binding affinity for Estrogen receptor alpha.

Usually bioavailability stands for dose-corrected exposure relative to a reference, in per cent. Low readings indicate little systemic uptake, high ones much systemic uptake. For the compound `O=C(c1ccc(OCCN2CCCCC2)cc1)c1c(-c2ccc(O)cc2)sc2cc(O)ccc12` [RALOXIFENE], the Increase (in the data set filed under Homo sapiens [1]; in data set [2]) was 2.4% each time. In “in vivo”, this compound registered a bioavailability of 2%. The compound further had a Decrease in the data set listed under Homo sapiens [3] of 40%.
One may read the Ki as a dissociation constant, usually derived from enzyme kinetics or from competition with a known ligand. As for `Oc1ccc2c(c1)CN(c1ccc(OCCN3CCCCC3)cc1)c1c-2ccc2cc(O)ccc12`, in the data set with Rattus norvegicus, the Effect entry is “inactive”. This compound also returned a Ki on Estrogen receptor of 0.28 nM.

These data come from ChEMBL document CHEMBL1136730, “Antiestrogens and selective estrogen receptor modulators as multifunctional medicines. 2. Clinical considerations and new agents” (J Med Chem, 2003).
